Like-named read-outs stand apart in the source and are kept apart here.
Experiments:
[1] = target: T1, WT STING (Homo sapiens, UniProt Q86WV6, H232R); experiment: Differential scanning fluorimetry (DSF) with WT STING; type: binding; design: 8xHis (N, cleaved yes); SUMO (N, cleaved yes); made in house; host or cells: E. coli Rosetta-gami B (DE3); conditions: thermal shift vs apoprotein; 150 μM CDN; truncated human WT STING 0.1 mg/ml
Protocol: (§1) Purified PCR products were cleaved with restriction enzymes BamHI (cat. #R0136S, NEB, Ipswich, USA) and NotI (cat. #R0189S, NEB, Ipswich, USA) and cloned into the pSUMO vector linearized with the identical enzymes.
(§2) DNase I (cat. #D5025, Sigma Aldrich, Czech Republic) and RNase A (cat. #R6513, Sigma Aldrich, Czech Republic) were added (final concentration 50 μg/ml) together with MgCl2 (final concentration 5 mmol·l^−1) to the homogenate and bacteria were lysed using French Press G-M™ High-Pressure Cell Press Homogenizer (1500 psi, 3 cycles). […] The resin was poured into a chromatography column, washed with 50 ml buffer A (50 mmol·l^−1 TrisCl (pH 8.0), 800 mmol·l^−1 NaCl, 3 mmol·l^−1 β-mercaptoethanol; 10% glycerol; 20 mmol·l^−1 imidazol) and 8-His-SUMO tagged STING proteins were eluted with 15 ml buffer A containing 300 mmol·l^−1 imidazole. […] Proteins were concentrated with Amicon® Ultra-15 10 K device (cat. #UFC901008, Merck Millipore, Billerica, USA) and flash frozen in liquid N2.
(§3) 20 μL solutions of the reaction mixtures were pipetted in triplicates into 96 well optical reaction plates and thermal denaturation of samples were performed on real time PCR cycler (LightCycler® 480 Instrument II—Roche, Basel, Switzerland). The first derivative of the thermal denaturation curves was performed to calculate denaturing temperatures of STING-CDN complexes and STING apoproteins. The thermal shift for each CDN was calculated by subtracting the average denaturing temperature of STING apoprotein from the average denaturing temperature of STING CDN complex.
Target sequence in this assay (Q86WV6 140-343 H232R): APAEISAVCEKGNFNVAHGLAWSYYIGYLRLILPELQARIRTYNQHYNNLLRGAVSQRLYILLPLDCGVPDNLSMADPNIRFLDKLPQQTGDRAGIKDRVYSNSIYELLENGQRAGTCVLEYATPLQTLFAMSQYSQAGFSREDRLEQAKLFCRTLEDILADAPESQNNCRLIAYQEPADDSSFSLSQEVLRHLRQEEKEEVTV

[2] = target: T2, AQ STING (G230A-R293Q) (Homo sapiens, UniProt Q86WV6, G230A/H232R/R293Q); experiment: Differential scanning fluorimetry (DSF) with AQ STING; type: binding; conditions: thermal shift vs apoprotein; 150 μM CDN; truncated human AQ STING 0.1 mg/ml
T2 construct: 8xHis (N, cleaved yes); SUMO (N, cleaved yes); made in house; host or cells: E. coli Rosetta-gami B (DE3)
Protocol: as §1, §2, §3

[3] = target: T1, WT STING; experiment: Digitonin assay using 293T wtSTING-FL reporter cells; type: cell-based; design: host or cells: 293T (ATCC CRL-3216), stably transfected, with 4xISRE firefly luciferase reporter; conditions: 293T wtSTING-FL cells, ISRE firefly luciferase; compounds in Digitonin buffer 30 minutes, then 5 hours; 8-point curve
Excerpt: Two complementary oligonucleotides of the sequence […] […] […] […] […] The oligonucleotides were mixed in equal molar amounts, hybridized, and cleaved by restriction endonucleases HindIII (cat. #. R0104S, NEB, Ipswich, USA) and BglII (cat. #R0144S, NEB, Ipswich, USA). Ultimately, they were ligated into plasmid pGL4.27 (cat. #E6651, Promega, Madison, USA) linearized with the same enzymes. As result the sequence with four ISRE sites was placed upstream of the minimum promoter of firefly luciferase reporter gene.
After 5 minutes incubation at room temperature (RT), 250 μL of the mixture was added dropwise to the cells in one well. Cells were incubated 36 hours at 37° C. with 5% CO2, and then detached with 0.05% Trypsin and 0.22 g/L EDTA (both cat. #L0941, Biowest, Riverside, USA).
Transfected cells were seeded onto poly-D-lysine coated six well plates at density 50,000 cells per 1 cm^2 in DMEM medium with high glucose containing 10% heat inactivated FBS, 30 μg/mL blasticidin (cat. #ant-b1-05, InvivoGen, San Diego, USA), 0.06 mg/ml Penicillin G and 0.1 mg/ml Streptomycin Sulfate (both cat. #. L0018, Biowest, Riverside, USA). The medium was replenished every 3-4 days until visible colonies of cells resistant to blasticidin were formed.
Blasticidin resistant cells stably expressing WT STING were further transfected with […] plasmid following the same procedure as described above. […] Homogeneous culture of stably double transfected cells was prepared by limiting dilution of cells in 96 well plates and wells with cells were selected that originated from a single cell.
The medium was removed next day and three fold serial dilutions of compounds in Digitonin buffer containing 50 mmol·l^−1 HEPES (cat. #H3375, Sigma Aldrich, Czech Republic) pH 7.0, 100 mmol·l^−1 KCl, 3 mmol·l^−1 MgCl2, 0.1 mmol·l^−1 DTT (cat. #D0632, Sigma Aldrich, Czech Republic), 85 mmol·l^−1 Sucrose (cat. #S7903, Sigma Aldrich, Czech Republic), 0.2% BSA (cat. #A2153, Sigma Aldrich, Czech Republic), 1 mmol·l^−1 ATP (cat. #A1852, Sigma Aldrich, Czech Republic), 0.1 mmol·l^−1 GTP (cat. #G8877, Sigma Aldrich, Czech Republic), and 10 μg/mL Digitonin A (cat. #D141, Sigma Aldrich, Czech Republic) were added to the cells. The buffer was removed after 30 minutes incubation at 37° C. with 5% CO2, the cells were washed once with 100 μl of cultivation medium, and 100 μl of medium was added to each well. The plates with cells were incubated for 5 hours at 37° C. with 5% CO2, 50 μl of the medium was removed and 30 μl of ONE-Glo™ Luciferase Assay System reagent (cat. #E6120, Promega, Madison, USA) was added to each well. Luminescence was read on Synergy H1 (Biotek, Winooski, USA). GraphPad Prism (La Jolla, USA) was used to calculate the 50% effective concentration ([…] from an 8-point dose-response curve.
Target sequence in this assay (Q86WV6 whole entry H232R, the tested form may be a part): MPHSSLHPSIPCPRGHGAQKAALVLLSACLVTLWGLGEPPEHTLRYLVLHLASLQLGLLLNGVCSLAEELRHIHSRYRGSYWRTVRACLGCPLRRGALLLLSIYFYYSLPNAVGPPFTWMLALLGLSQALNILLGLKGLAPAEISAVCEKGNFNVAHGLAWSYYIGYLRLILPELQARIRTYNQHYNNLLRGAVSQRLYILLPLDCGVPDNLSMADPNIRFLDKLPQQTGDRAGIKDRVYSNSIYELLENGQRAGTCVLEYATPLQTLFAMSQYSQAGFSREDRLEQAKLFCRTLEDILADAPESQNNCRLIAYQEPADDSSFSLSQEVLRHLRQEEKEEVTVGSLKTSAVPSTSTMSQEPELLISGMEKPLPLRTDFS

[4] = test system: peripheral blood mononuclear cells (PBMC); experiment: Peripheral blood mononuclear cell (PBMC) assay; type: cell-based; conditions: 1 h with compounds, washed, 15 hour incubation, average of one to four donors
Protocol: Selected compounds were tested in an in vitro peripheral blood mononuclear cell (PBMC) assay. […] Serially diluted tested compounds were added to wells in 50 μl of cultivation medium and cell were incubated with compounds for 1 h at 37° C. with 5% CO2. Plates with cells were then spun 500 g for 5 minutes and medium was removed. Cells were washed twice with the cell culture medium by the use of centrifugation and gently resuspended in 100 μl medium without compounds. After 15 hour incubation at 37° C. with 5% CO2, the cell culture medium was collected and the levels of interferon-alpha (INF-α), interferon-gamma (INF-γ) and tumor necrosis factor-alpha (TNF-α) were determined with ProcartaPlex Assays (ThermoFisher, Waltham, USA) and MAGPIX System (Merck KGaA, Darmstadt, Germany). […] Values reported are an average of runs from one to four donors.

T2 sequence (Q86WV6 140-343 G230A/H232R/R293Q): as the sequence (Q86WV6 140-343 H232R) above, with G91A, R154Q counted along it

| ΔTm at 150 µM [1] [°C] | ΔTm at 150 µM [2] [°C] | EC50 [3] [µM] | DSF ΔTm (° C.) WT STING [1] [°C] | Structure (SMILES) | further results |
| --- | --- | --- | --- | --- | --- |
| 2.6 | 7.9 | 0.1 |  | Nc1ncnc2c1ncn2[C@@H]1C[C@@H]2COP(=O)(O)O[C@H]3[C@@H](F)[C@H](n4cnc5c(N)ncnc54)O[C@@H]3COP(=O)(O)O[C@H]2[C@@H]1F [Compound 127, (1R,6R,8R,9R,10R,15R,17R,18R)-8,17-bis(6-amino-9H-purin-9-yl)-9,18-difluoro-3,12-dihydroxy-2,4,7,11,13-pentaoxa-3λ^5,12λ^5-diphosphatricyclo[13.3.0.0^6,10]octadecane-3,12-dione] |  |
| 12.9 | 19.9 | 0.008 |  | Nc1nc2c(ncn2[C@@H]2O[C@@H]3COP(=O)(S)O[C@@H]4[C@@H](COP(=O)(S)O[C@H]3[C@H]2F)C[C@@H](n2cnc3c(N)ncnc32)[C@@H]4F)c(=O)[nH]1 (single isomer, unassigned) [Compound 132a] |  |
| 5.8 | 15.7 | 0.05 |  | Nc1nc2c(ncn2[C@H]2CC3OP(=O)(O)OC[C@H]4C[C@@H](n5cnc6c(N)ncnc65)C(O)C4OP(=O)(O)OC[C@H]3O2)c(=O)[nH]1 (stereo partly drawn) [Compound 110, 2-amino-9-((2R,3a5,7aR,9R,10S,10aR,14aR)-9-(6-amino-9H-purin-9-yl)-5,10,12-trihydroxy-5,12-dioxidodecahydro-2H-cyclopenta[d]furo[3,2-j][1,3,7,9]tetraoxa[2,8]diphosphacyclododecin-2-yl)-1,9-dihydro-6H-purin-6-one] |  |
|  | 18.5 | 0.01 | 8.9 | Nc1nc2c(ncn2[C@@H]2O[C@@H]3COP(=O)(O)OC4C(O)[C@H](n5cnc6c(N)ncnc65)C[C@@H]4COP(=O)(O)OC3C2F)c(=O)[nH]1 (single isomer, unassigned) [Compound 109] |  |
|  |  | 0.3 | 2.6 | Nc1ncnc2c1ncn2[C@@H]1O[C@@H]2COP(=O)(O)O[C@H]3[C@@H](O)[C@H](n4cnc5c(N)ncnc54)O[C@@H]3COP(=O)(O)O[C@H]2[C@H]1O [3′3′c-di-AMP, reference compound] | DSF ΔTm (° C.) AQ STING [2]: 9.3 °C |
|  |  | 0.01 |  | Nc1ncnc2c1ncn2[C@@H]1C[C@@H]2COP(=O)(S)OC3C(F)[C@H](n4cnc5c(N)ncnc54)O[C@@H]3COP(=O)(S)OC2C1F (single isomer, unassigned) [Compound 102c] |  |

Continued, compound first:

| Structure (SMILES) | ΔTm at 150 µM [1] [°C] | ΔTm at 150 µM [2] [°C] | EC50 [3] [µM] | DSF ΔTm (° C.) WT STING [1] [°C] | further results |
| --- | --- | --- | --- | --- | --- |
| COC1C2OP(=O)(O)OC[C@H]3C[C@@H](n4cnc5c(=O)[nH]c(N)nc54)C(O)C3OP(=O)(O)OC[C@H]2O[C@H]1n1cnc2c(N)ncnc21 (stereo partly drawn) [Compound 118, (6R,8R,15R,17R)-17-(2-amino-6-oxo-6,9-dihydro-1H-purin-9-yl)-8-(6-amino-9H-purin-9-yl)-3,12,18-trihydroxy-9-methoxy-2,4,7,11,13-pentaoxa-3λ^5,12λ^5-diphosphatricyclo[13.3.0.0^6,10]octadecane-3,12-dione] | 0.5 | 1.5 |  |  |  |
| Nc1nc2c(ncn2[C@@H]2C[C@@H]3COP(=O)(O)OC4C(F)[C@H](n5cnc6c(N)ncnc65)O[C@@H]4COP(=O)(O)OC3C2O)c(=O)[nH]1 (single isomer, unassigned) [Compound 105] |  |  | 1.6 | 0.8 | DSF ΔTm (° C.) AQ STING [2]: 7.0 °C |
| CC(C)(C)C(=O)OCSP1(=O)OC[C@H]2O[C@@H](n3cnc4c(=O)[nH]c(N)nc43)[C@H](F)[C@@H]2OP(=O)(SCOC(=O)C(C)(C)C)OC[C@H]2C[C@@H](n3cnc4c(N)ncnc43)[C@H](F)[C@@H]2O1 (single isomer, unassigned) [Compound 150a] |  |  |  |  | EC50 ([4]; interferon-alpha level, read-out: PBMC EC50 (μM) IFN-α): 1 µM; EC50 ([4]; interferon-gamma level, read-out: PBMC EC50 (μM) IFN-γ): 0.7 µM; EC50 ([4]; tumor necrosis factor-alpha level, read-out: PBMC EC50 (μM) TNF-α): 0.7 µM |
| Nc1nc2c(ncn2[C@@H]2C[C@@H]3COP(=O)(S)O[C@H]4[C@@H](F)[C@H](n5cnc6c(N)ncnc65)O[C@@H]4COP(=O)(S)O[C@H]3C2)c(=O)[nH]1 (single isomer, unassigned) [Compound 129c] |  | 13.2 | 0.4 | 6.4 |  |
| Nc1ncnc2c1ncn2[C@@H]1C[C@@H]2COP(=O)(S)O[C@H]3C[C@H](n4cnc5c(N)ncnc54)O[C@@H]3COP(=O)(S)O[C@H]2[C@H]1F (single isomer, unassigned) [Compound 142a] |  |  | 0.03 |  |  |

— patent US11766447B2, “3′3′-cyclic dinucleotide analogue comprising a cyclopentanyl modified nucleotide as sting modulator” (INSTITUTE OF ORGANIC CHEMISTRY AND BIOCHEMISTRY ASCR, V.V.I., priority 2019, dated 2023)
